The test deals with Bacillus subtilis ssp. shriramensis (MTCC-5674). The test can be described thus: Antibiotic sensitivity test (antibiotic discs on T3 agar). On Result: key: RES - Resistant; INT - Intermediate; SEN - Sensitive. It is filed as cell-based. The following applies: antibiotic disc on T3 agar, 30° C. for 24 hours; for Result: judged against Standards. The protocol: Different antibiotic discs were placed on the surface of the T3 agar plates labelled with the respective antibiotic. The plates were incubated at 30° C. for 24 hours.

Positions of bridges follow the written chain, without caps; N, C: chain ends. Non-standard residues stand in square brackets, D forms with d. Residues, ends and D or L forms follow the SMILES beside them. *: point of attachment. Ileψ(thiazoline)Cys = CC[C@H](C)[C@H](N)C1=N[C@H](C(=O)*)CS1; dOrn = NCCC[C@@H](N)C(=O)O

As to `NCC[C@H](O)C(=O)N[C@@H]1C[C@H](N)[C@@H](O[C@H]2O[C@H](CN)[C@@H](O)[C@H](O)[C@H]2O)[C@H](O)[C@H]1O[C@H]1O[C@H](CO)[C@@H](O)[C@H](N)[C@H]1O` [Amikacin], the Zone was found to be 15 mm; the “antibiotic sensitivity of the bacterium, in words” value (“antibiotic sensitivity” for short) was “intermediate resistance”; the Result entry is reported as “INT”.
As to `CC1(C)S[C@@H]2[C@H](NC(=O)[C@H](N)c3ccc(O)cc3)C(=O)N2[C@H]1C(=O)O` [Amoxicillin], the Zone stood at 0 mm; the “antibiotic sensitivity” value was “resistant”; the Result result is reported as “RES”.
For the compound `CC1(C)S[C@@H]2[C@H](NC(=O)[C@H](N)c3ccccc3)C(=O)N2[C@H]1C(=O)O` [Ampicillin], the Zone was 0 mm; the “antibiotic sensitivity” value was “resistant”; the Result entry was “RES”.
Turning to `CC[C@H]1OC(=O)[C@H](C)[C@@H](O[C@H]2C[C@@](C)(OC)[C@@H](O)[C@H](C)O2)[C@H](C)[C@@H](O[C@@H]2O[C@H](C)C[C@H](N(C)C)[C@H]2O)[C@](C)(O)C[C@@H](C)CN(C)[C@H](C)[C@@H](O)[C@]1(C)O` [Azithromycin], the Zone amounted to 10 mm; the “antibiotic sensitivity” value is listed as “resistant”; the Result entry is “RES”.
Taken in the same sequence, the figures for `CC[C@H](C)[C@H](N)C1=N[C@H](C(=O)N[C@@H](CC(C)C)C(=O)N[C@H](CCC(=O)O)C(=O)N[C@H](C(=O)N[C@H]2CCCCNC(=O)[C@H](CC(N)=O)NC(=O)[C@@H](CC(=O)O)NC(=O)[C@H](Cc3cnc[nH]3)NC(=O)[C@@H](Cc3ccccc3)NC(=O)[C@H]([C@@H](C)CC)NC(=O)[C@@H](CCCN)NC2=O)[C@@H](C)CC)CS1` [Bacitracin] ({Ileψ(thiazoline)Cys}-L[dE]IK[dOrn]I[dF]H[dD]N; lactam 4-C) were 21 mm, “sensitive” and “SEN”.
On the same counts, the results for `CC1(C)S[C@@H]2[C@H](NC(=O)C(C(=O)O)c3ccccc3)C(=O)N2[C@H]1C(=O)O` (stereo partly drawn) [Carbenicillin] are 15 mm, “resistant” and “RES”.
On the same counts, the results for `CO/N=C(\C(=O)N[C@@H]1C(=O)N2C(C(=O)O)=C(CSc3nc(=O)c(=O)[nH]n3C)CS[C@H]12)c1csc(N)n1` [Ceftriaxone] are 28 mm, “sensitive” and “SEN”.
Take `CC(=O)OCC1=C(C(=O)O)N2C(=O)[C@@H](NC(=O)Cc3cccs3)[C@H]2SC1` [Cephalothin]: the Zone amounted to 40 mm; the “antibiotic sensitivity” value was “sensitive”; the Result entry is on record as “SEN”.
With `O=C(N[C@H](CO)[C@H](O)c1ccc([N+](=O)[O-])cc1)C(Cl)Cl` [Chloramphenicol], the Zone turned out to be 25 mm; the “antibiotic sensitivity” value is given as “sensitive”; the Result result is recorded as “SEN”.
The compound `CCC[C@@H]1C[C@@H](C(=O)N[C@@H]([C@H]2O[C@H](SC)[C@H](O)[C@@H](O)[C@H]2O)[C@H](C)Cl)N(C)C1` [Clindamycin] displayed a Zone of 10 mm.
Take `CCN1CCN(c2cc3c(cc2F)c(=O)c(C(=O)O)cn3C2CC2)CC1` [Enrofloxacin]: the Zone worked out at 41 mm; the “antibiotic sensitivity” value is reported as “resistant”; the Result result is listed as “RES”.
For the compound `CC[C@H]1OC(=O)[C@H](C)[C@@H](O[C@H]2C[C@@](C)(OC)[C@@H](O)[C@H](C)O2)[C@H](C)[C@@H](O[C@@H]2O[C@H](C)C[C@H](N(C)C)[C@H]2O)[C@](C)(O)C[C@@H](C)C(=O)[C@H](C)[C@@H](O)[C@]1(C)O` [Erythromycin], the Zone is 16 mm; the “antibiotic sensitivity” value is “intermediate resistance”; the Result entry is “INT”.
Consider `NC[C@H]1O[C@H](O[C@H]2[C@H](O)[C@@H](O[C@H]3O[C@H](CO)[C@@H](O)[C@H](N)[C@H]3O)[C@H](N)C[C@@H]2N)[C@H](O)[C@@H](O)[C@@H]1O` [Kanamycin], for which the Zone turned out to be 13 mm and the Result entry is given as “RES”.
Regarding `CCC[C@@H]1C[C@@H](C(=O)N[C@@H]([C@H]2O[C@H](SC)[C@H](O)[C@@H](O)[C@H]2O)[C@@H](C)O)N(C)C1` [Lincomycin], the Zone worked out at 12 mm; the “antibiotic sensitivity” value is recorded as “resistant”; the Result result was “RES”.
On the same counts, the results for `CO[C@@H]1[C@@H](OC(N)=O)[C@@H](O)[C@H](Oc2ccc3c(O)c(NC(=O)c4ccc(O)c(CC=C(C)C)c4)c(=O)oc3c2C)OC1(C)C` [Novobiocin] are 24 mm, “sensitive” and “SEN”.
Taken in the same sequence, the figures for `Cc1onc(-c2ccccc2)c1C(=O)N[C@@H]1C(=O)N2[C@@H]1SC(C)(C)[C@@H]2C(=O)O` [Oxacillin] were 11 mm, “intermediate resistance” and “INT”.
Taken in the same sequence, the figures for `[H]/N=C(/N)N[C@H]1[C@H](O)[C@@H](O)[C@H](O[C@@H]2O[C@@H](C)[C@](O)(C=O)[C@H]2O[C@@H]2O[C@@H](CO)[C@H](O)[C@@H](O)[C@@H]2NC)[C@@H](N/C(N)=N\[H])[C@@H]1O` [Streptomycin] were 12 mm, “intermediate resistance” and “INT”.
As for `Cc1noc(NS(=O)(=O)c2ccc(N)cc2)c1C` [Sulfisoxazole], the Zone is 33 mm; the “antibiotic sensitivity” value was “sensitive”; the Result result is “SEN”.
On to `NC[C@H]1O[C@H](O[C@H]2[C@H](O)[C@@H](O[C@H]3O[C@H](CO)[C@@H](O)[C@H](N)[C@H]3O)[C@H](N)C[C@@H]2N)[C@H](N)C[C@@H]1O` [Tobramycin], for which the Zone was determined as 15 mm; the “antibiotic sensitivity” value is reported as “sensitive”; the Result result is listed as “SEN”.
On the same counts, the results for `CN[C@H](CC(C)C)C(=O)N[C@H]1C(=O)N[C@@H](CC(N)=O)C(=O)N[C@H]2C(=O)N[C@H]3C(=O)N[C@H](C(=O)N[C@H](C(=O)O)c4cc(O)cc(O)c4-c4cc3ccc4O)[C@H](O)c3ccc(c(Cl)c3)Oc3cc2cc(c3O[C@@H]2O[C@H](CO)[C@@H](O)[C@H](O)[C@H]2O[C@H]2C[C@](C)(N)[C@H](O)[C@H](C)O2)Oc2ccc(cc2Cl)[C@H]1O` [Vancomycin] are 20 mm, “sensitive” and “SEN”.
On the same counts, the results for Gentamicin are 20 mm, “sensitive” and “SEN”.
Taken in the same sequence, the figures for Neomycin were 12 mm, “resistant” and “RES”.

Source of the values: US10327448B2, “Bacterium of Bacillus genus and uses thereof” (priority 2014, dated 2019).
